This note sets out measurements from patent publication US20250205350A1, “Antibody-Drug Conjugates and Uses Thereof” (Vivasor, Inc., priority 2022, published 2025).

Test [1] concerns MDA-MB-468 (HER2−). The test can be described thus: In vitro cell viability (CellTiter-Glo) of camptothecin derivatives in MDA-MB-468. The class given is cell-based, human. As to conditions: 120-hour assay. As to the method:
(§1) The in vitro efficacies of camptothecin derivatives were evaluated using the following human cancer cell lines: SkBr-3 (Her2+) and MDA-MB-468 (HER2−), purchased from the American Type Culture Collection (ATCC; Manassas, VA) and were routinely cultured in DMEM/F-12 medium (Catalog #10-090-CV; Corning) supplemented with 10% fetal bovine serum (FBS; Catalog #MT35011CV; Corning) and 1× Penicillin-Streptomycin (Catalog #30-002-CI; Corning) and maintained at 37° C. with 5% CO2 in a humidified environment.
(§2) Tumor cells were harvested by detachment with cell stripper. Viable cell counts were made by Trypan blue exclusion using a Countess or Countess II automated cell counter. Cell Viability Assay: All cells were harvested and seeded into 384-well white wall clear bottom plates (Catalog #3765; Corning) at a density of 875 cells/well in DMEM/F-12 medium supplemented with 10% fetal bovine serum and 1× Penicillin-Streptomycin (complete growth media). Plates were maintained at 37° C. for 4-6 hours to allow cells to adhere to the plate. The outer wells of plates contained complete growth medium only and were used for background subtraction for the cell viability assay. Working solutions of test articles were prepared at 2× final concentrations with 5-fold serial dilutions in complete growth medium. Cell treatment was performed in triplicates and maintained at 37° C. for 120-hour assay. After treatment, cell viability was determined by CellTiter-Glo 2.0 assay (Catalog #G9243; Promega; Madison, WI, USA) based on the manufacturer's instructions. CellTiter Glo reagent reacts with ATP in metabolically active cells to give a luminescent readout that is directly proportional to the number of viable cells. Briefly, plates were removed from the incubator and equilibrated to room temperature before addition of CellTiter Glo reagent. Luminescence was measured using a Tecan Spark microplate reader (Tecan; Mannedorf, Switzerland).
(§3) For Cytotoxicity assays, raw luminescence data was background subtracted with average luminescence from the outer wells containing medium only and normalized to untreated controls using Excel (Microsoft; […]). Dose-response relationships and EC50 values were determined based on non-linear regression analysis of normalized data fit to a four-parameter logistic equation using GraphPad Prism 8.0.

Test [2] relates to SkBr-3 (Her2+). The test is described as follows: In vitro cell viability (CellTiter-Glo) of camptothecin derivatives in SkBr-3. The class given is cell-based, human. To be noted: 120-hour assay. The method, then:
as §1, §2, §3

Test [3] has as its system HER2-negative MDA-MB-468. The test is described as follows: In vitro cell viability (CellTiter-Glo) of anti-HER2 ADCs in MDA-MB-468. The class given is cell-based. As to conditions: Homo sapiens, MDA-MB-468, 120 h, 120-hour assay. As to the method:
(§4) ADCs were evaluated using the following human cancer cell lines: HER2-positive SkBr-3, HER2-positive NCI-N87, and HER2-negative MDA-MB-468, purchased from the American Type Culture Collection (ATCC; Manassas, VA) and were routinely cultured in DMEM/F-12 medium (Catalog #[…]; Corning) supplemented with 10% fetal bovine serum (FBS; Catalog #MT35011CV; Corning) and 1× Penicillin-Streptomycin (Catalog #30-002-CI; Corning) and maintained at 37° C. with 5% CO2 in a humidified environment.
(§5) Tumor cells were harvested by detachment with cell stripper. Viable cell counts were made by Trypan blue exclusion using a Countess or Countess II automated cell counter. […] After treatment, cell viability was determined by CellTiter-Glo 2.0 assay (Catalog #G9243; Promega; Madison, WI, USA) based on the manufacturer's instructions. CellTiter Glo reagent reacts with ATP in metabolically active cells to give a luminescent readout that is directly proportional to the number of viable cells. […] Luminescence was measured using a Tecan Spark microplate reader (Tecan; Mannedorf, Switzerland).
(§6) For Cytotoxicity assays, raw luminescence data was background subtracted with average luminescence from the outer wells containing medium only and normalized to untreated controls using Excel (Microsoft; Albuquerque, NM). […]

The subject of test [4] is HER2-positive SkBr-3. The test is described as follows: In vitro cell viability (CellTiter-Glo) of anti-HER2 ADCs in SkBr-3. The class given is cell-based. To be noted: Homo sapiens, SK-BR-3, 120 h, Table 6; 120-hour assay. The method, then:
as §4, §5, §6

[5] abbreviates: Table 4A, derivatives as TFA salt, exatecan mesylate.
[6] abbreviates: Homo sapiens, MDA-MB-468, 120 h, Table 4A, derivatives as TFA salt, exatecan mesylate.
The mark [7] stands for this setting: Homo sapiens, SK-BR-3, 120 h, Table 4A, derivatives as TFA salt, exatecan mesylate.
Setting [8] is: Homo sapiens, MDA-MB-468, 120 h, Table 4B.
[9] abbreviates: Homo sapiens, SK-BR-3, 120 h, Table 4B.

Consider `CC[C@]1(O)C(=O)OCc2c1cc1n(c2=O)Cc2c-1nc1cc(F)c(C)c3c1c2[C@H](NC(=O)c1cccc(N)n1)CC3` [Compound L078-029], for which the EC50 is 2 nM in test [1] (setting [5]) and 0.8 nM in test [2] (setting [5]).

In the case of `CC[C@]1(O)C(=O)OCc2c1cc1n(c2=O)Cc2c-1nc1cc(F)c(C)c3c1c2[C@H](NC(=O)C1CNC1)CC3` [Compound L078-030], the EC50 in test [1] (setting [6]) is 57.2 nM; in test [2] (setting [7]), 49.6 nM.

As to `CC[C@]1(O)C(=O)OCc2c1cc1n(c2=O)Cc2c-1nc1cc(F)c(C)c3c1c2[C@H](NC(=O)[C@H]1CCN1)CC3` [Compound L078-042], the concentration for a half-maximal effect (EC50) in test [1] (setting [6]) was found to be 5.7 nM; in test [2] (setting [7]), 2.3 nM.

With `CC[C@]1(O)C(=O)OCc2c1cc1n(c2=O)Cc2c-1nc1cc(F)c(C)c3c1c2[C@H](NC(=O)[C@@H]1CCN1)CC3` [Compound L078-043], the EC50 in test [1] (setting [6]) is 3.7 nM; in test [2] (setting [7]), 1.8 nM.

On to `CC[C@]1(O)C(=O)OCc2c1cc1n(c2=O)Cc2c-1nc1cc(F)c(C)c3c1c2[C@H](NC(=O)[C@H]1CNCCO1)CC3` [Compound L078-046], for which the EC50 in test [1] (setting [6]) is 5.7 nM; in test [2] (setting [7]) it was 5.5 nM.

With `CC[C@]1(O)C(=O)OCc2c1cc1n(c2=O)Cc2c-1nc1cc(F)c(C)c3c1c2[C@H](NC(=O)[C@@H]1CNCCO1)CC3` [Compound L078-047], the concentration giving a half-maximal response (EC50) in test [1] (setting [6]) turned out to be 15.7 nM; in test [2] (setting [7]) it was 11 nM.

As for `CC[C@]1(O)C(=O)OCc2c1cc1n(c2=O)Cc2c-1nc1cc(F)c(C)c3c1c2[C@H](NC(=O)[C@@H]1COCCN1)CC3` [Compound L078-048], the EC50 in test [1] (setting [6]) amounted to 5.7 nM; in test [2] (setting [7]), 5.6 nM.

As for `CC[C@]1(O)C(=O)OCc2c1cc1n(c2=O)Cc2c-1nc1cc(F)c(C)c3c1c2[C@H](NC(=O)[C@H]1COCCN1)CC3` [Compound L078-049], the concentration for a half-maximal effect (EC50) in test [1] (setting [6]) was found to be 4.7 nM; in test [2] (setting [7]), 2.3 nM.

With `CC[C@]1(O)C(=O)OCc2c1cc1n(c2=O)Cc2c-1nc1cc(F)c(C)c3c1c2[C@H](NC(=O)[C@@H]1C[C@@H](F)CN1)CC3` [Compound L078-051], the EC50 in test [1] (setting [6]) was determined as 5.4 nM; in test [2] (setting [7]), 2.8 nM.

Turning to `CC[C@]1(O)C(=O)OCc2c1cc1n(c2=O)Cc2c-1nc1cc(F)c(C)c3c1c2[C@H](NC(=O)[C@H]1CCCN1)CC3` [Compound L078-065], the values for the concentration for a half-maximal effect (EC50) in test [1] (setting [6]) and in test [2] (setting [7]) were 6 nM and 3.2 nM, respectively.

As to `CC[C@]1(O)C(=O)OCc2c1cc1n(c2=O)Cc2c-1nc1cc(F)c(C)c3c1c2[C@H](NC(=O)[C@@H]1CCCN1)CC3` [Compound L078-066], the EC50 was 5.6 nM in test [1] (setting [6]) and 3 nM in test [2] (setting [7]).

As to `CC[C@]1(O)C(=O)OCc2c1cc1n(c2=O)Cc2c-1nc1cc(F)c(C)c3c1c2[C@H](NC(=O)C1CCNCC1)CC3` [Compound L078-081], the EC50 in test [1] (setting [5]) stood at 81.4 nM; in test [2] (setting [5]), 163 nM.

Turning to `CC[C@]1(O)C(=O)OCc2c1cc1n(c2=O)Cc2c-1nc1cc(F)c(C)c3c1c2[C@H](NC(=O)C1(N)COC1)CC3` [Compound L078-088], the EC50 in test [1] (setting [8]) came out at 7.32 nM; in test [2] (setting [9]), 2.72 nM.

Take `CC[C@]1(O)C(=O)OCc2c1cc1n(c2=O)Cc2c-1nc1cc(F)c(C)c3c1c2[C@H](NC(=O)C1(N)CCOC1)CC3` (stereo partly drawn) [Compound L078-149]: the concentration for a half-maximal effect (EC50) came to 5.01 nM in test [1] (setting [8]) and 7.71 nM in test [2] (setting [9]).

As to `CC[C@]1(O)C(=O)OCc2c1cc1n(c2=O)Cc2c-1nc1cc(F)c(C)c3c1c2[C@H](NC(=O)C1(N)CCOCC1)CC3` [Compound L078-150], it took 3.01 nM to reach a half-maximal effect in test [1] (Table 4B) (EC50).

With `CC[C@@]1(O)C(=O)OCc2c1cc1n(c2=O)Cc2c-1nc1cc(F)c(C)c3c1c2[C@@H](NC(=O)CO)CC3` [Dxd, reference compound], the EC50 in test [3] (Table 5) turned out to be 2.55 nM; in test [3] (Table 6), 2.57 nM; in test [1] (setting [6]) it was 2 nM; in test [1] (setting [8]) it was 3.16 nM; in test [2] (setting [7]), 2.2 nM; in test [2] (setting [9]), 3.66 nM. In test [4], this compound returned an EC50 of 3.84 nM.

On to `CC[C@@]1(O)C(=O)OCc2c1cc1n(c2=O)Cc2c-1nc1cc(F)c(C)c3c1c2[C@@H](N)CC3` [Exatecan, exatecan, reference compound], for which the EC50 in test [1] (setting [6]) was 1.1 nM; in test [1] (setting [8]), 1.99 nM; in test [2] (setting [7]), 0.69 nM.
